± gives the expanded uncertainty stated by the source.

The nature of the series: activity coefficient (dimensionless); of the first substance listed, at infinite dilution; xn = mol fraction of the nth substance listed. To be noted: Liquid, Chromatography, x1 = 0.

As for `CCCCCCCCC` [nonane] + CCCCCC[N+](C)(C)C.O=S(=O)([N-]S(=O)(=O)C(F)(F)F)C(F)(F)F, the activity coefficient (322.65 K) was found to be 28.9 ± 1.3, the activity coefficient (343.85 K) worked out at 24.6 ± 1.1 and the activity coefficient (352.65 K) came to 23.4 ± 1.1.
Regarding `CC(C)CO` [2-methyl-1-propanol] + CCn1cc[n+](C)c1.N#CN=C=[N-], the activity coefficient was found to be 1.48 ± 0.06 (322.65 K), 1.4 ± 0.05 (332.85 K) and 1.33 ± 0.05 (343.15 K).
Turning to `C[N+](=O)[O-]` [nitromethane] + CCCCCC[N+](C)(C)C.O=S(=O)([N-]S(=O)(=O)C(F)(F)F)C(F)(F)F, the activity coefficient by setting is: (322.65 K) 0.975 ± 0.025; (343.85 K) 0.567 ± 0.031; (352.65 K) 0.568 ± 0.031.
In the case of `CCCCCCCCCCCCCC` [tetradecane] + CCCCCC[N+](C)(C)C.O=S(=O)([N-]S(=O)(=O)C(F)(F)F)C(F)(F)F, the activity coefficient is, setting by setting: (322.65 K) 159 ± 7.5; (343.85 K) 101 ± 4.7; (352.65 K) 84.7 ± 4.
Take `CCCC(C)=O` [pentan-2-one] + CCCCCC[N+](C)(C)C.O=S(=O)([N-]S(=O)(=O)C(F)(F)F)C(F)(F)F: the activity coefficient worked out at 0.612 ± 0.031 (322.65 K), 0.638 ± 0.03 (343.85 K) and 0.663 ± 0.03 (352.65 K).
For `C1CCOC1` [tetrahydrofuran] + CCCCCC[N+](C)(C)C.O=S(=O)([N-]S(=O)(=O)C(F)(F)F)C(F)(F)F, in that order: 0.686 ± 0.03, 0.754 ± 0.029 and 0.808 ± 0.028.
As for `Cc1cccc(C)c1` [1,3-dimethylbenzene] + CCn1cc[n+](C)c1.N#CN=C=[N-], the activity coefficient reads like this: (322.65 K) 7.4 ± 0.34; (332.85 K) 8.39 ± 0.38; (343.15 K) 7.27 ± 0.33.
`CCCCCCCCCCC` [undecane] + CCn1cc[n+](C)c1.N#CN=C=[N-]: the activity coefficient is 1030 ± 50 (322.65 K), 926 ± 44 (332.85 K) and 834 ± 40 (343.15 K).
Consider `CCCCCCCCCCCC` [dodecane] + CCn1cc[n+](C)c1.N#CN=C=[N-], for which the activity coefficient is 1410 ± 68 (322.65 K), 1290 ± 62 (332.85 K) and 1180 ± 57 (343.15 K).
With `CCN(CC)CC` [triethylamine] + CCn1cc[n+](C)c1.N#CN=C=[N-], the activity coefficient runs as follows: (322.65 K) 9.09 ± 0.42; (332.85 K) 35.8 ± 1.7; (343.15 K) 131 ± 6.2.
`Cc1ccccc1C` [1,2-dimethylbenzene] + CCn1cc[n+](C)c1.N#CN=C=[N-]: the activity coefficient was 5.86 ± 0.27 (322.65 K), 5.8 ± 0.27 (332.85 K) and 5.75 ± 0.26 (343.15 K).
In the case of `CCOC(C)=O` [ethyl acetate] + CCCCCC[N+](C)(C)C.O=S(=O)([N-]S(=O)(=O)C(F)(F)F)C(F)(F)F, the activity coefficient is 0.72 ± 0.029 (322.65 K), 0.748 ± 0.029 (343.85 K) and 0.776 ± 0.028 (352.65 K).
For `C#CCCCCC` [1-heptyne] + CCCCCC[N+](C)(C)C.O=S(=O)([N-]S(=O)(=O)C(F)(F)F)C(F)(F)F, the activity coefficient reads like this: (322.65 K) 3.57 ± 0.16; (343.85 K) 3.5 ± 0.16; (352.65 K) 3.54 ± 0.16.
With `CCCO` [propan-1-ol] + CCn1cc[n+](C)c1.N#CN=C=[N-], the activity coefficient amounted to 1.07 ± 0.03 (322.65 K), 1.01 ± 0.03 (332.85 K) and 0.97 ± 0.03 (343.15 K).
As to `c1ccncc1` [pyridine] + CCn1cc[n+](C)c1.N#CN=C=[N-], the activity coefficient was 0.4 ± 0.03 (322.65 K), 1.05 ± 0.03 (332.85 K) and 1.07 ± 0.03 (343.15 K).
On to `Cc1ccccc1` [toluene] + CCn1cc[n+](C)c1.N#CN=C=[N-], for which the activity coefficient is, setting by setting: (322.65 K) 4.22 ± 0.19; (332.85 K) 4.21 ± 0.19; (343.15 K) 4.21 ± 0.19.
Turning to `CCCCCC` [hexane] + CCCCCC[N+](C)(C)C.O=S(=O)([N-]S(=O)(=O)C(F)(F)F)C(F)(F)F, the activity coefficient is 9.81 ± 0.45 (322.65 K), 9.02 ± 0.41 (343.85 K) and 8.85 ± 0.41 (352.65 K).
Turning to `C1COCCO1` [1,4-dioxane] + CCn1cc[n+](C)c1.N#CN=C=[N-], the activity coefficient was 0.89 ± 0.03 (322.65 K), 1.24 ± 0.04 (332.85 K) and 1.25 ± 0.04 (343.15 K).
For `C1CCCCCC1` [cycloheptane] + CCn1cc[n+](C)c1.N#CN=C=[N-], in that order: 128 ± 6, 169 ± 8 and 221 ± 10.
For `CCCCCCCCCCCCCC` [tetradecane] + CCn1cc[n+](C)c1.N#CN=C=[N-], in that order: 2500 ± 120, 2330 ± 110 and 2190 ± 110.
On to `CCN(CC)CC` [triethylamine] + CCCCCC[N+](C)(C)C.O=S(=O)([N-]S(=O)(=O)C(F)(F)F)C(F)(F)F, for which the activity coefficient runs as follows: (322.65 K) 4.53 ± 0.21; (343.85 K) 4.83 ± 0.22; (352.65 K) 5.04 ± 0.23.
For the compound `C1CCCCCC1` [cycloheptane] + CCCCCC[N+](C)(C)C.O=S(=O)([N-]S(=O)(=O)C(F)(F)F)C(F)(F)F, the activity coefficient runs as follows: (322.65 K) 14.3 ± 0.66; (343.85 K) 33.3 ± 1.5; (352.65 K) 43.4 ± 2.
The corresponding values for `CCCC=O` [butanal] + CCCCCC[N+](C)(C)C.O=S(=O)([N-]S(=O)(=O)C(F)(F)F)C(F)(F)F are 0.657 ± 0.03, 0.661 ± 0.03 and 0.677 ± 0.03.
`Cc1ccccc1` [toluene] + CCCCCC[N+](C)(C)C.O=S(=O)([N-]S(=O)(=O)C(F)(F)F)C(F)(F)F: the activity coefficient by setting is: (322.65 K) 1.31 ± 0.045; (343.85 K) 1.33 ± 0.046; (352.65 K) 1.38 ± 0.05.
As for `c1ccsc1` [thiophene] + CCn1cc[n+](C)c1.N#CN=C=[N-], the activity coefficient is 1.6 ± 0.06 (322.65 K), 1.51 ± 0.06 (332.85 K) and 1.53 ± 0.06 (343.15 K).
For the compound `CC1CCCC1` [methylcyclopentane] + CCn1cc[n+](C)c1.N#CN=C=[N-], the activity coefficient was determined as 50.3 ± 2.4 (322.65 K), 46.5 ± 2.2 (332.85 K) and 43.2 ± 2 (343.15 K).
Turning to `c1ccncc1` [pyridine] + CCCCCC[N+](C)(C)C.O=S(=O)([N-]S(=O)(=O)C(F)(F)F)C(F)(F)F, the activity coefficient (322.65 K) is 0.336 ± 0.035, the activity coefficient (343.85 K) turned out to be 0.589 ± 0.031 and the activity coefficient (352.65 K) was found to be 0.607 ± 0.031.
For `OCC(F)(F)F` [2,2,2-trifluoroethanol] + CCCCCC[N+](C)(C)C.O=S(=O)([N-]S(=O)(=O)C(F)(F)F)C(F)(F)F, in that order: 0.157 ± 0.038, 0.402 ± 0.034 and 0.393 ± 0.034.
The corresponding values for `CCCO` [propan-1-ol] + CCCCCC[N+](C)(C)C.O=S(=O)([N-]S(=O)(=O)C(F)(F)F)C(F)(F)F are 1.83 ± 0.079, 1.51 ± 0.058 and 1.41 ± 0.052.
On to `CCCC=O` [butanal] + CCn1cc[n+](C)c1.N#CN=C=[N-], for which the activity coefficient (322.65 K) came out at 2.23 ± 0.1, the activity coefficient (332.85 K) came to 2.22 ± 0.1 and the activity coefficient (343.15 K) was 2.21 ± 0.1.
In the case of `C=CCCCC` [hex-1-ene] + CCCCCC[N+](C)(C)C.O=S(=O)([N-]S(=O)(=O)C(F)(F)F)C(F)(F)F, the activity coefficient by setting is: (322.65 K) 5.8 ± 0.27; (343.85 K) 5.55 ± 0.25; (352.65 K) 5.58 ± 0.26.
As to `CCCCCCCC` [octane] + CCCCCC[N+](C)(C)C.O=S(=O)([N-]S(=O)(=O)C(F)(F)F)C(F)(F)F, the activity coefficient came out at 19 ± 0.88 (322.65 K), 16.8 ± 0.78 (343.85 K) and 16.2 ± 0.75 (352.65 K).
In the case of `C1CCCCC1` [cyclohexane] + CCCCCC[N+](C)(C)C.O=S(=O)([N-]S(=O)(=O)C(F)(F)F)C(F)(F)F, the activity coefficient runs as follows: (322.65 K) 6.6 ± 0.3; (343.85 K) 5.9 ± 0.27; (352.65 K) 5.74 ± 0.26.
The corresponding values for `Cc1cccc(C)c1` [1,3-dimethylbenzene] + CCCCCC[N+](C)(C)C.O=S(=O)([N-]S(=O)(=O)C(F)(F)F)C(F)(F)F are 1.8 ± 0.077, 1.82 ± 0.078 and 1.89 ± 0.083.
Take `CCCCCCCCCCCCC` [tridecane] + CCCCCC[N+](C)(C)C.O=S(=O)([N-]S(=O)(=O)C(F)(F)F)C(F)(F)F: the activity coefficient is 100 ± 4.7 (322.65 K), 76.2 ± 3.6 (343.85 K) and 71.5 ± 3.3 (352.65 K).
The corresponding values for `CCO` [ethanol] + CCCCCC[N+](C)(C)C.O=S(=O)([N-]S(=O)(=O)C(F)(F)F)C(F)(F)F are 2.41 ± 0.11, 1.28 ± 0.043 and 1.21 ± 0.039.
As for `ClC(Cl)Cl` [trichloromethane] + CCn1cc[n+](C)c1.N#CN=C=[N-], the activity coefficient was 0.76 ± 0.03 (322.65 K), 0.81 ± 0.03 (332.85 K) and 0.86 ± 0.03 (343.15 K).
Take `ClCCl` [dichloromethane] + CCCCCC[N+](C)(C)C.O=S(=O)([N-]S(=O)(=O)C(F)(F)F)C(F)(F)F: the activity coefficient runs as follows: (322.65 K) 0.678 ± 0.03; (343.85 K) 0.728 ± 0.029; (352.65 K) 0.759 ± 0.029.
For `c1ccsc1` [thiophene] + CCCCCC[N+](C)(C)C.O=S(=O)([N-]S(=O)(=O)C(F)(F)F)C(F)(F)F, in that order: 0.921 ± 0.026, 0.92 ± 0.026 and 0.941 ± 0.026.
Regarding `CCCCCCC` [heptane] + CCn1cc[n+](C)c1.N#CN=C=[N-], the activity coefficient (322.65 K) was 183 ± 8.7, the activity coefficient (332.85 K) was 159 ± 7.5 and the activity coefficient (343.15 K) was determined as 139 ± 6.6.
`CCCCCCCCCCCCC` [tridecane] + CCn1cc[n+](C)c1.N#CN=C=[N-]: the activity coefficient reads like this: (322.65 K) 1940 ± 94; (332.85 K) 1780 ± 86; (343.15 K) 1650 ± 79.
Turning to `C=O` [methanal] + CCn1cc[n+](C)c1.N#CN=C=[N-], the activity coefficient runs as follows: (322.65 K) 0.32 ± 0.04; (332.85 K) 0.35 ± 0.04; (343.15 K) 0.37 ± 0.03.

These data come from the NIST ThermoML archive (doi:10.1021/je9003178).
